Measurements taken from patent US20230295118A1 (EnhancedBio Inc., priority 2022, published 2023).

How the values were obtained:
Assay type in all cases: cell-based
[1] = test system: mantle cell lymphoma cell (Mino or JeKo-1); test: Antiproliferative effect, MTS cell viability assay; conditions: 72 h, mantle cell lymphoma cell (Mino or JeKo-1), MTS assay, read-out: IC50 (anti-proliferation)
Protocol: Antiproliferative effect of the exemplary compounds was assessed in B-cell malignancy models.
To assess the effect of the exemplary compounds on cell viability in B-cell malignancy models by degradation of CDK4/6 proteins, Mino cells were treated with varying concentrations of exemplary compounds (0, 0.0001, 0.001, 0.01, 0.1, 1 μM) or positive control (palbociclib and abemaciclib). Under these conditions, cell viability was determined by an MTS assay. Cytotoxicity was assayed by the determination of reduced tetrazolium (formazan) created by metabolically active cells as detected at 490 nanometers (nm) absorbance using a microplate reader (BMG Labtech, Cary, NC, USA).
The exemplary compounds attenuated the viability of Mino cells in a concentration-dependent manner at 72 h post treatment. Results are shown in Table 1 and FIGS. 2-15 for each exemplary compound.

CDK6 = molecular target: T1, CDK6 (Homo sapiens, UniProt Q00534); test: CDK6 degradation (DC50, Dmax)
T1 construct: endogenous in cells

CDK4 = molecular target: T2, CDK4 (Homo sapiens, UniProt P11802); test: CDK4 degradation (DC50, Dmax)
T2 construct: endogenous in cells
T2 sequence (P11802 whole entry): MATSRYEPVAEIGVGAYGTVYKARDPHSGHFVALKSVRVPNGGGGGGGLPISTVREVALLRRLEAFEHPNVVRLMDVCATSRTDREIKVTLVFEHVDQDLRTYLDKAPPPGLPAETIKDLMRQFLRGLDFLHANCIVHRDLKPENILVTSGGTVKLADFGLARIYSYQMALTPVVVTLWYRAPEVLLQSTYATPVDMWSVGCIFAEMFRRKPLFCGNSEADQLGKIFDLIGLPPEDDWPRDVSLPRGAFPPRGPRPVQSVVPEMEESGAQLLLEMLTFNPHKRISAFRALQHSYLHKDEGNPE

T1 sequence (Q00534 whole entry): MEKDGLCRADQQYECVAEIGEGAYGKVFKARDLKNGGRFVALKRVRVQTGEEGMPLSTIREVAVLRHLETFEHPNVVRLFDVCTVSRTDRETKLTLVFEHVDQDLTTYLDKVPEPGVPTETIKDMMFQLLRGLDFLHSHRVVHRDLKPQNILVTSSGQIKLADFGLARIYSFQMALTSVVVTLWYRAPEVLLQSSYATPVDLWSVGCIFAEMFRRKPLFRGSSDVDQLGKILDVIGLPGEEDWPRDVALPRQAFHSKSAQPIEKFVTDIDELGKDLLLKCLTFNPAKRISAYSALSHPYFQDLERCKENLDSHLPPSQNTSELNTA

| IC50 [1] | DC50 (CDK6) | Dmax (CDK6) | DC50 (CDK4) | Dmax (CDK4) | Structure (SMILES) |
| --- | --- | --- | --- | --- | --- |
| 50 to 200 nM | 50 to 200 nM | > 80% | 50 to 200 nM | > 60% | Cc1nc2c(F)cc(-c3nc(Nc4ccc(CN5CCN(C(=O)C6CCN(c7ccc(NC8CCC(=O)NC8=O)cc7)CC6)CC5)cn4)ncc3F)cc2n1C(C)C (stereo not drawn) [Compound 156, 3-((4-(4-(4-((6-((5-fluoro-4-(4-fluoro-1-isopropyl-2-methyl-1H-benzo[d]imidazol-6-yl)pyrimidin-2-yl)amino)pyridin-3-yl)methyl)piperazine-1-carbonyl)piperidin-1-yl)phenyl)amino) piperidine-2,6-dione] |
| > 200 nM | > 200 nM | > 50% | > 200 nM | > 50% | CC(=O)c1c(C)c2cnc(Nc3ccc(N4CCN(CC5CCN(C(=O)N6CCC(CCN7CCN(c8ccc9c(c8)C(=O)N(C8CCC(=O)NC8=O)C9=O)CC7)CC6)CC5)CC4)cn3)nc2n(C2CCCC2)c1=O (stereo not drawn) [Compound 83, 5-(4-(2-(1-(4-((4-(6-((6-acetyl-8-cyclopentyl-5-methyl-7-oxo-7,8-dihydropyrido[2,3-d]pyrimidin-2-yl)amino)pyridin-3-yl)piperazin-1-yl)methyl)piperidine-1-carbonyl)piperidin-4-yl)ethyl)piperazin-1-yl)-2-(2,6-dioxopiperidin-3-yl) isoindoline-1,3-dione] |
| < 50 nM | 50 to 200 nM | > 60% | 50 to 200 nM | > 60% | CC(=O)c1c(C)c2cnc(Nc3ccc(N4CCN(C(=O)N5CCC(CCN6CCN(c7ccc8c(c7)C(=O)N(C7CCC(=O)NC7=O)C8=O)CC6)CC5)CC4)cn3)nc2n(C2CCCC2)c1=O (stereo not drawn) [Compound 19, 5-(4-(2-(1-(4-(6-((6-acetyl-8-cyclopentyl-5-methyl-7-oxo-7,8-dihydropyrido[2,3-d]pyrimidin-2-yl)amino)pyridin-3-yl)piperazine-1-carbonyl)piperidin-4-yl)ethyl)piperazin-1-yl)-2-(2,6-dioxopiperidin-3-yl)isoindoline-1,3-dione] |
| 50 to 200 nM | 50 to 200 nM | > 60% | 50 to 200 nM | > 60% | CC(=O)c1c(C)c2cnc(Nc3ccc(N4CCN(C(=O)N5CCC(N6CCC(c7ccc8c(c7)C(=O)N(C7CCC(=O)NC7=O)C8=O)CC6)CC5)CC4)cn3)nc2n(C2CCCC2)c1=O (stereo not drawn) [Compound 7, 5-(1′-(4-(6-((6-acetyl-8-cyclopentyl-5-methyl-7-oxo-7,8-dihydropyrido[2,3-d]pyrimidin-2-yl)amino)pyridin-3-yl)piperazine-1-carbonyl)-[1,4′-bipiperidin]-4-yl)-2-(2,6-dioxopiperidin-3-yl)isoindoline-1,3-dione] |
| < 50 nM | 50 to 200 nM | > 80% | 50 to 200 nM | > 80% | Cc1nc2c(F)cc(-c3nc(Nc4ccc(CC5CCN(C6CCN(c7ccc8c(c7)C(=O)N(C7CCC(=O)NC7=O)C8=O)CC6)CC5)cn4)ncc3F)cc2n1C(C)C (stereo not drawn) [Compound 169, 2-(2,6-dioxopiperidin-3-yl)-5-(4-((6-((5-fluoro-4-(4-fluoro-1-isopropyl-2-methyl-1H-benzo[d]imidazol-6-yl)pyrimidin-2-yl)amino)pyridin-3-yl)methyl)-[1,4′-bipiperidin]-1′-yl)isoindoline-1,3-dione] |
| 50 to 200 nM | 50 to 200 nM | > 60% | 50 to 200 nM | > 60% | Cc1nc2c(F)cc(-c3nc(Nc4ccc(CN5CCN(C(=O)C6CN(c7ccc(C(=O)NC8CCC(=O)NC8=O)cc7)C6)CC5)cn4)ncc3F)cc2n1C(C)C (stereo not drawn) [Compound 137, N-(2,6-dioxopiperidin-3-yl)-4-(3-(4-((6-((5-fluoro-4-(4-fluoro-1-isopropyl-2-methyl-1H-benzo[d]imidazol-6-yl)pyrimidin-2-yl)amino)pyridin-3-yl)methyl)piperazine-1-carbonyl)azetidin-1-yl)benzamide] |
| < 50 nM | 50 to 200 nM | > 80% | 50 to 200 nM | > 80% | CC(=O)c1c(C)c2cnc(Nc3ccc(N4CCN(CCCNc5cccc6c5C(=O)N(C5CCC(=O)NC5=O)C6=O)CC4)cn3)nc2n(C2CCCC2)c1=O (stereo not drawn) [Compound 62, 4-((3-(4-(6-((6-acetyl-8-cyclopentyl-5-methyl-7-oxo-7,8-dihydropyrido[2,3-d]pyrimidin-2-yl)amino)pyridin-3-yl)piperazin-1-yl)propyl)amino)-2-(2,6-dioxopiperidin-3-yl) isoindoline-1,3-dione] |
| 50 to 200 nM | > 200 nM | > 60% | > 200 nM | > 60% | CC(=O)c1c(C)c2cnc(Nc3ccc(N4CCN(C(=O)N5CCN(CCN6CCC(c7ccc8c(c7)CN(C7CCC(=O)NC7=O)C8=O)CC6)CC5)CC4)cn3)nc2n(C2CCCC2)c1=O (stereo not drawn) [Compound 28, 3-(5-(1-(2-(4-(4-(6-((6-acetyl-8-cyclopentyl-5-methyl-7-oxo-7,8-dihydropyrido[2,3-d]pyrimidin-2-yl)amino)pyridin-3-yl)piperazine-1-carbonyl)piperazin-1-yl)ethyl)piperidin-4-yl)-1-oxoisoindolin-2-yl)piperidine-2,6-dione] |
| < 50 nM | < 50 nM | > 80% | < 50 nM | > 80% | Cc1nc2c(F)cc(-c3nc(Nc4ccc(CN5CCN(CCCNc6ccc7c(c6)CN(C6CCC(=O)NC6=O)C7=O)CC5)cn4)ncc3F)cc2n1C(C)C (stereo not drawn) [Compound 74, 3-(5-((3-(4-((6-((5-fluoro-4-(4-fluoro-1-isopropyl-2-methyl-1H-benzo[d]imidazol-6-yl)pyrimidin-2-yl)amino)pyridin-3-yl)methyl)piperazin-1-yl)propyl)amino)-1-oxoisoindolin-2-yl)piperidine-2,6-dione] |
| > 200 nM | > 200 nM | > 50% | > 200 nM | > 60% | CC(=O)c1c(C)c2cnc(Nc3ccc(N4CCN(C(=O)N5CCC(N6CCC(c7ccc8c(c7)CN(C7CCC(=O)NC7=O)C8=O)CC6)CC5)CC4)cn3)nc2n(C2CCCC2)c1=O (stereo not drawn) [Compound 8, 3-(5-(1′-(4-(6-((6-acetyl-8-cyclopentyl-5-methyl-7-oxo-7,8-dihydropyrido[2,3-d]pyrimidin-2-yl)amino)pyridin-3-yl)piperazine-1-carbonyl)-[1,4′-bipiperidin]-4-yl)-1-oxoisoindolin-2-yl)piperidine-2,6-dione] |
| < 50 nM | < 50 nM | > 80% | < 50 nM | > 80% | CC(=O)c1c(C)c2cnc(Nc3ccc(C4CCN(CC5CN(c6ccc(NC7CCC(=O)NC7=O)cc6)C5)CC4)cn3)nc2n(C2CCCC2)c1=O (stereo not drawn) [Compound 128, 3-((4-(3-((4-(6-((6-acetyl-8-cyclopentyl-5-methyl-7-oxo-7,8-dihydropyrido[2,3-d]pyrimidin-2-yl)amino)pyridin-3-yl)piperidin-1-yl)methyl)azetidin-1-yl)phenyl)amino) piperidine-2,6-dione] |
| 50 to 200 nM | 50 to 200 nM | > 60% | 50 to 200 nM | > 60% | CC(=O)c1c(C)c2cnc(Nc3ccc(N4CCN(CCC5CCN(C(=O)Nc6ccc7c(c6)C(=O)N(C6CCC(=O)NC6=O)C7=O)CC5)CC4)cn3)nc2n(C2CCCC2)c1=O (stereo not drawn) [Compound 45, 4-(2-(4-(6-((6-acetyl-8-cyclopentyl-5-methyl-7-oxo-7,8-dihydropyrido[2,3-d]pyrimidin-2-yl)amino)pyridin-3-yl)piperazin-1-yl)ethyl)-N-(2-(2,6-dioxopiperidin-3-yl)-1,3-dioxoisoindolin-5-yl)piperidine-1-carboxamide] |
